Results published in paper PMC5214259, “Identification of Guanosine 5′-diphosphate as Potential Iron Mobilizer: Preventing the Hepcidin-Ferroportin Interaction and Modulating the Interleukin-6/Stat-3 Pathway” (Scientific Reports, 2017).

Biological target: T1, hepcidin (Homo sapiens, UniProt P81172)
T1 construct: gene HAMP; hepcidin-25 (25 amino acid peptide hormone)
T1 sequence (P81172 60-84 limits assumed): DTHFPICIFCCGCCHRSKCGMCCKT
Assay: UV-visible absorption titration (Kd); thermal shift assay (SYPRO orange, Tm […] to […] °C with equimolar GDP)
Type: binding

- Kd: 5.88 µM
Structure (SMILES): Nc1nc2c(ncn2[C@@H]2O[C@H](COP(=O)(O)OP(=O)(O)O)[C@@H](O)[C@H]2O)c(=O)[nH]1 [ZINC08215481, guanosine 5′-diphosphate]
